Values quoted from earlier work, collected in patent US9302007B2, “Low surfactant iodine topical disinfectant” (DELAVAL HOLDING AB, priority 2011, dated 2016).

Conditions: room temperature

SMILES: II
- solubility of iodine in water: about 300 ppm
